Reference: PubChem BioAssay (NCI)
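Compound exposure: 48 hours, 5 concentrations, 96-well plates. GI50: concentration for 50% inhibition of growth. The concentration for full growth arrest is given as TGI.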

What was measured:
Test in all cases: inhibition of tumour cell growth, NCI panel, 48 h
[1] = system: UACC-62 melanoma
[2] = system: HL-60(TB) leukemia
[3] = system: LOX IMVI melanoma
[4] = system: HT29 colon
[5] = system: MOLT-4 leukemia
[6] = system: SW-620 colon
[7] = system: NCI-H522 lung
[8] = system: ACHN renal
[9] = system: NCI-H226 lung
[10] = system: HOP-92 NSCLC

Compound	TGI [1] [µM]	TGI [2] [µM]	TGI [3] [µM]	TGI [4] [µM]	TGI [5] [µM]	TGI [6] [µM]	TGI [7] [µM]	TGI [8] [µM]	TGI [9] [µM]	TGI [10] [µM]	GI50 [1] [µM]	GI50 [2] [µM]	GI50 [3] [µM]	GI50 [4] [µM]	GI50 [5] [µM]	GI50 [6] [µM]	GI50 [7] [µM]	GI50 [8] [µM]	GI50 [9] [µM]	GI50 [10] [µM]
Cc1c(NC(=O)Nc2c(Cl)cccc2Cl)c(=O)n(-c2ccccc2)n1C	> 100	> 100	> 100	> 100	> 100	> 100	> 100	> 100	> 100	> 100										
CC(C)c1[nH]nc2c(NCc3ccc(-c4ccccn4)cc3)nc(SCCN(C)C)nc12	0.4	0.0313	11.1	1.21	0.202	12.1	< 0.0232	4.96	0.706	0.468	0.0427	< 0.0156	0.123	< 0.0158	< 0.0178	< 0.0135	< 0.015	0.0864	0.24	0.0585
C#CCOc1cccc(Nc2ncnc3cc(NC(=O)C=C)ccc23)c1	> 100	45.7	17.3	> 100	69.1	27.8	34.2	> 100	> 100	58.4	9.82	3.84	3.73	3.66	4.56	3.15	2.8	4.74	29.7	4.77
CCC[n+]1cc2cc3c(cc2c2c1-c1cc4c(cc1C2)OCO4)OCO3 (tested in a mixture with another compound)	1.7	14.8	14.3	16.6	3.03	12.8	2.08	51.3	7.96	4.07	0.465	2.98	3.22	1.41	0.251	0.733		12.1	0.719	0.683
Cc1ccc(C)c(NC(=O)C(=O)C2C(=O)N(c3ccccc3)N=C2N)c1 (centres undefined)	> 100	> 100	> 100	> 100	> 100	> 100	> 100	> 100	> 100	> 100										
O=c1cc(-c2ccccc2)oc2cc(OCCCCCN3CCOCC3)cc(O)c12	> 100	> 100	> 100	> 100	> 100	> 100	94.9	> 100	> 100	26.6	95.7	71	> 100	40.3	99.7	> 100	31	> 100	> 100	11
COc1ccc(NC(=O)c2oc3cc(O)ccc3c(=O)c2C)c([N+](=O)[O-])c1	> 100	> 100	> 100	> 100	> 100	> 100	> 100	> 100	> 100	> 100										
